Source: patent US5200409A, “Composition and use of substituted 1,3-dithiolo-and 1,4-dithiinoquinoxalines as an antimicrobial” (The Dow Chemical Company, priority 1992, dated 1993)
Values after ≈ are worked out from the molar mass of the structure shown. Read-outs that look alike come from different tables or passages of the source.

Legend:
Aspergillus niger (An) = assay: Minimum inhibitory concentration (MIC) in malt yeast agar; type: cell-based, Aspergillus niger ATCC 16404; details: read-out: Minimum Inhibitory Concentration, An
Procedure, shortened: (§1)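 These fungal MICs come from an agar dilution series in malt yeast agar spanning 500 to 1.0 ppm. The plates were incubated at 30° C and read after 72 hours.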

[1] = test system: Aureobasidium pullulan (Ap); assay: as above; type: cell-based, Aureobasidium pullulan ATCC 16622; details: read-out: Minimum Inhibitory Concentration, Ap
Procedure, shortened: as §1

[2] = test system: Pseudomonas aeruginosa (PRD-10); assay: Minimum inhibitory concentration (MIC) in nutrient agar; type: cell-based, Pseudomonas aeruginosa ATCC 15442; details: 48 h
Procedure, shortened: (§2)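 MIC is taken as the lowest agar concentration preventing bacterial growth after 48 h at 30° C. Compound, added from a 1% acetone/water stock, ranges 1.0–500 ppm in nutrient agar at pH 6.8 or 8.2, with compound-free controls.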

Candida albicans (Ca) = assay: Minimum inhibitory concentration (MIC) in malt yeast agar; type: cell-based, Candida albicans ATCC 10231; details: read-out: Minimum Inhibitory Concentration, Ca
Procedure, shortened: (§3)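 Compound dispersed in malt yeast agar at final 500, 250, 100, 50, 25, 10, 5, 2.5, 1.0 and 0 ppm (from 1% acetone/water solution); plates dried 24 h, then inoculated with saline/octylphenoxy polyethoxy ethanol suspensions of 7-day cultures diluted 1:9. Incubated at 30° C; read at 48 h for yeast, 72 h for fungi.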

Escherichia coli (Ec) = assay: Minimum inhibitory concentration (MIC) in nutrient agar; type: cell-based, Escherichia coli ATCC 11229; details: 48 h
Procedure, shortened: as §2

[3] = test system: Klebsiella pneumoniae (Kp); assay: as above; type: cell-based, Klebsiella pneumoniae ATCC 8308
Procedure, shortened: as §2

[4] = test system: Salmonella choleraesuis (Sc); assay: as above; type: cell-based, Salmonella choleraesuis ATCC 10708; details: Salmonella enterica, 48 h
Procedure, shortened: as §2

[5] = test system: Enterobacter aerogenes (Ea); assay: as above; type: cell-based, Enterobacter aerogenes ATCC 13048; details: Klebsiella aerogenes, 48 h
Procedure, shortened: as §2

[6] = test system: Penicillium chrysogenum (Pc); assay: Minimum inhibitory concentration (MIC) in malt yeast agar; type: cell-based, Penicillium chrysogenum ATCC 9480; details: read-out: Minimum Inhibitory Concentration, Pc
Procedure, shortened: as §1

[7] = test system: Staphylococcus aureus (Sa); assay: Minimum inhibitory concentration (MIC) in nutrient agar; type: cell-based, Staphylococcus aureus ATCC 6538
Procedure, shortened: as §2

[8] = test system: Pseudomonas aeruginosa (Pa); assay: as above; type: cell-based, Pseudomonas aeruginosa ATCC 10145; details: 48 hours
Procedure, shortened: as §2

Trichoderma viride (Tv) = assay: Minimum inhibitory concentration (MIC) in malt yeast agar; type: cell-based, Trichoderma viride ATCC 8678; details: 72 h, read-out: Minimum Inhibitory Concentration, Tv
Procedure, shortened: as §1

Bacillus subtilis (Bs) = assay: Minimum inhibitory concentration (MIC) in nutrient agar; type: cell-based, Bacillus subtilis ATCC 8473
Procedure, shortened: as §2

Fusarium oxysporum (Fo) = assay: Minimum inhibitory concentration (MIC) in malt yeast agar; type: cell-based, Fusarium oxysporum ATCC 48112; details: read-out: Minimum Inhibitory Concentration, Fo
Procedure, shortened: as §1

Proteus vulgaris (Pv) = assay: Minimum inhibitory concentration (MIC) in nutrient agar; type: cell-based, Proteus vulgaris ATCC 881; details: 48 h
Procedure, shortened: as §2

[9] = test system: Saccharomyces cerevisiae (Sc); assay: Minimum inhibitory concentration (MIC) in malt yeast agar; type: cell-based, Saccharomyces cerevisiae ATCC 4105; details: read-out: Minimum Inhibitory Concentration, Sc
Procedure, shortened: as §3

[10] = pH 6.8, read-out: Minimum Inhibitory Concentration, PRD
[11] = pH 8.2, read-out: Minimum Inhibitory Concentration, PRD
[12] = pH 6.8, read-out: Minimum Inhibitory Concentration, Ec
[13] = pH 8.2, read-out: Minimum Inhibitory Concentration, Ec
[14] = 48 h, pH 6.8, read-out: Minimum Inhibitory Concentration, Kp
[15] = 48 h, pH 8.2, read-out: Minimum Inhibitory Concentration, Kp
[16] = pH 6.8, read-out: Minimum Inhibitory Concentration, Sc
[17] = pH 8.2, read-out: Minimum Inhibitory Concentration, Sc
[18] = pH 6.8, read-out: Minimum Inhibitory Concentration, Ea
[19] = pH 8.2, read-out: Minimum Inhibitory Concentration, Ea
[20] = 48 h, pH 6.8, read-out: Minimum Inhibitory Concentration, Sa
[21] = 48 h, pH 8.2, read-out: Minimum Inhibitory Concentration, Sa
[22] = 48 h, pH 6.8, read-out: Minimum Inhibitory Concentration, Bs
[23] = 48 h, pH 8.2, read-out: Minimum Inhibitory Concentration, Bs
[24] = pH 6.8, read-out: Minimum Inhibitory Concentration, Pv
[25] = pH 8.2, read-out: Minimum Inhibitory Concentration, Pv
[26] = malt yeast agar, 30° C., 48 hours for yeast
[27] = pH 6.8, nutrient agar, 30° C., 48 hours, read-out: Minimum Inhibitory Concentration, Kp
[28] = malt yeast agar, 30° C., 72 hours for fungi

SMILES | MIC (Aspergillus niger (An); 72 h) | MIC [1] | MIC [2, 10] | MIC [2, 11] | MIC (Escherichia coli (Ec); [12]) | MIC (Escherichia coli (Ec); [13]) | MIC [3, 15] | MIC [4, 16] | MIC [4, 17] | MIC [5, 18] | MIC [5, 19] | MIC ([6]; 72 h) | MIC [7, 20] | MIC [7, 21] | MIC ([8]; pH 6.8, 30° C.) | MIC ([8]; pH 8.2, 30° C.) | MIC (Trichoderma viride (Tv)) | MIC (Bacillus subtilis (Bs); [23]) | MIC (Proteus vulgaris (Pv); [24]) | MIC (Proteus vulgaris (Pv); [25]) | also measured
N#CC(C#N)=C1Sc2nc3cc([N+](=O)[O-])c([N+](=O)[O-])cc3nc2S1 [M, 6,7-dinitro-1,3-dithiolo-(4,5-b)-quinoxaline-2-ylidene-propanedinitrile] | 2.5 µg/mL (≈ 6.98 µM) | 2.5 µg/mL (≈ 6.98 µM) | > 500 µg/mL | > 500 µg/mL | > 500 µg/mL | > 500 µg/mL | > 500 µg/mL | 500 µg/mL (≈ 1400 µM) | > 500 µg/mL | > 500 µg/mL | > 500 µg/mL | 2.5 µg/mL (≈ 6.98 µM) | < 10 µg/mL | 100 µg/mL (≈ 279 µM) | 500 µg/mL (≈ 1400 µM) | > 500 µg/mL | 10 µg/mL (≈ 27.9 µM) | 250 µg/mL (≈ 698 µM) | > 500 µg/mL | > 500 µg/mL | MIC (Candida albicans (Ca); 48 h): 2.5 µg/mL (≈ 6.98 µM); MIC [3, 14]: 50 µg/mL (≈ 140 µM); MIC (Bacillus subtilis (Bs); [22]): 100 µg/mL (≈ 279 µM); MIC (Fusarium oxysporum (Fo); 72 h): 5 µg/mL (≈ 14 µM); MIC ([9]; 48 h): 2.5 µg/mL (≈ 6.98 µM)
N#CC(C#N)=C1Sc2nc3ccc([N+](=O)[O-])cc3nc2S1 [L, 6-nitro-1,3-dithiolo-(4,5-b)-quinoxaline-2-ylidene-propanedinitrile] | 2.5 µg/mL (≈ 7.98 µM) | 5 µg/mL (≈ 16 µM) | > 500 µg/mL | > 500 µg/mL | > 500 µg/mL | > 500 µg/mL | > 500 µg/mL | > 500 µg/mL | > 500 µg/mL | > 500 µg/mL | > 500 µg/mL | 2.5 µg/mL (≈ 7.98 µM) |  | > 500 µg/mL | > 500 µg/mL | > 500 µg/mL |  | > 500 µg/mL | > 500 µg/mL | > 500 µg/mL | MIC (Candida albicans (Ca); [26]): 10 µg/mL (≈ 31.9 µM); MIC [3, 27]: > 500 µg/mL; MIC ([7]; pH 6.8, nutrient agar, 30° C., 48 hours, read-out: Minimum Inhibitory Concentration, Sa): 100 µg/mL (≈ 319 µM); MIC (Bacillus subtilis (Bs); [22]): 100 µg/mL (≈ 319 µM); MIC (Fusarium oxysporum (Fo); [28]): 10 µg/mL (≈ 31.9 µM); MIC [9, 26]: 5 µg/mL (≈ 16 µM)
N#CC1=C(C#N)Sc2nc3cc(Cl)ccc3nc2S1 [C, 7-chloro-1,4-dithiino-(2,3-b)-quinoxaline-2,3-dicarbonitrile] |  |  | > 500 µg/mL | > 500 µg/mL | > 500 µg/mL | > 500 µg/mL | > 500 µg/mL | > 500 µg/mL | > 500 µg/mL | > 500 µg/mL | > 500 µg/mL |  | 50 µg/mL (≈ 165 µM) |  | > 500 µg/mL | > 500 µg/mL | 250 µg/mL (≈ 826 µM) | 25 µg/mL (≈ 82.6 µM) | > 500 µg/mL | > 500 µg/mL | MIC (Aspergillus niger (An); [28]): 25 µg/mL (≈ 82.6 µM); MIC ([1]; malt yeast agar, 30° C., 48 hours for yeast and 72 hours for fungi): < 10 µg/mL; MIC (Candida albicans (Ca); [26]): < 10 µg/mL; MIC [3, 27]: > 500 µg/mL; MIC [6, 28]: < 10 µg/mL; MIC ([7]; pH 8.2, nutrient agar, 30° C., 48 hours, read-out: Minimum Inhibitory Concentration, Sa): 50 µg/mL (≈ 165 µM); MIC (Bacillus subtilis (Bs); pH 6.8, nutrient agar, 30° C., 48 hours, read-out: Minimum Inhibitory Concentration, Bs): 25 µg/mL (≈ 82.6 µM); MIC (Fusarium oxysporum (Fo); [28]): 25 µg/mL (≈ 82.6 µM); MIC [9, 26]: < 10 µg/mL
N#CC1=C(C#N)Sc2nc3cc([N+](=O)[O-])c([N+](=O)[O-])cc3nc2S1 [B, 7,8-Dinitro-1,4-dithiino-(2,3-b)quinoxaline-2,3-dicarbonitrile] | 25 µg/mL (≈ 69.8 µM) | 5 µg/mL (≈ 14 µM) | > 500 µg/mL | > 500 µg/mL | 250 µg/mL (≈ 698 µM) | > 500 µg/mL | > 500 µg/mL | 500 µg/mL (≈ 1400 µM) | > 500 µg/mL | > 500 µg/mL | > 500 µg/mL | 10 µg/mL (≈ 27.9 µM) | < 10 µg/mL | < 10 µg/mL | > 500 µg/mL | > 500 µg/mL | 50 µg/mL (≈ 140 µM) | 25 µg/mL (≈ 69.8 µM) | > 500 µg/mL | > 500 µg/mL | MIC (Candida albicans (Ca); 48 h): 25 µg/mL (≈ 69.8 µM); MIC [3, 14]: 250 µg/mL (≈ 698 µM); MIC (Bacillus subtilis (Bs); [22]): 500 µg/mL (≈ 1400 µM); MIC (Fusarium oxysporum (Fo); 72 h): 25 µg/mL (≈ 69.8 µM); MIC ([9]; 48 h): 25 µg/mL (≈ 69.8 µM)
